From ChEMBL document CHEMBL4251581, “Synthesis and antimycobacterial activity of triterpeni≿ A-ring azepanes” (Eur J Med Chem, 2018)
pIC50: −log10 of the molar value. Converted amounts (≈) assume the structure as drawn.

Tests used:
[1] = test system: Mycobacterium tuberculosis; assay: Antimycobacterial activity against Mycobacterium tuberculosis H37Rv; assay type: functional, organism-based
[2] = test system: Mycobacterium tuberculosis; assay: Bactericidal activity against Mycobacterium tuberculosis H37Rv; assay type: functional
[3] = test system: Mycobacterium tuberculosis; assay: Antimycobacterial activity against Mycobacterium tuberculosis H37Ra by microplate alamar blue assay; assay type: functional
[4] = test system: Mycobacterium tuberculosis; assay: Antimycobacterial activity against Mycobacterium tuberculosis H37Rv ATCC 27294 after 5 days by microplate alamar blue assay; assay type: functional; conditions: H37Rv ATCC 27294, 120 h
[5] = test system: Mycobacterium tuberculosis; assay: Antimycobacterial activity against Mycobacterium tuberculosis H37Rv after 7 days by microplate alamar blue assay; assay type: functional; conditions: 168 h

SMILES	pIC50 [1]	IC90 [1]	MIC [1]	MBC [2]	MIC [3]	MIC [4]	MIC90 [5]
COC(=O)[C@]12CCC(C)(C)C[C@@H]1C1/C(=N/O)C[C@@H]3[C@@]4(C)CCC(=O)NC(C)(C)[C@@H]4CC[C@@]3(C)[C@]1(C)CC2 (some centres not stated)	4.27	97 µM	97 µM (≈ 49.9 µg/mL)				
C[C@H]1[C@H](C)CC[C@]2(COC(=O)/C=C/c3ccccc3)CC[C@]3(C)C(=CC[C@@H]4[C@@]5(C)CCCNC(C)(C)[C@@H]5CC[C@]43C)[C@@H]12	5.42	5.2 µM	6.25 µM (≈ 3.57 µg/mL)	14 µg/mL (≈ 24.5 µM)			
CC1(C)CC[C@]2(CO)CC[C@]3(C)C(=CC[C@@H]4[C@@]5(C)CCCNC(C)(C)[C@@H]5CC[C@]43C)[C@H]2C1	5.42	11.5 µM	12.5 µM (≈ 5.52 µg/mL)	20 µg/mL (≈ 45.3 µM)			
C=C(C)[C@@H]1CC[C@]2(C(=O)O)CC[C@]3(C)[C@H](CC[C@@H]4[C@@]5(C)CC[C@H](OC(=O)/C=C/c6ccc(O)cc6)C(C)(C)[C@@H]5CC[C@]43C)[C@@H]12					6.25 µg/mL (≈ 10.4 µM)		
CO[C@H]1/C=C/O[C@@]2(C)Oc3c(C)c(O)c4c(O)c(c(/C=N/N5CCN(C)CC5)c(O)c4c3C2=O)NC(=O)/C(C)=C\C=C\[C@H](C)[C@H](O)[C@@H](C)[C@@H](O)[C@@H](C)[C@H](OC(C)=O)[C@@H]1C [RIFAMPIN]	7.70	0.03 µM	0.04 µM (≈ 0.0329 µg/mL)				
C=C(C)[C@@H]1CC[C@]2(CO)CC[C@]3(C)[C@H](CC[C@@H]4[C@@]5(C)CCCN(CCCN)C(C)(C)[C@@H]5CC[C@]43C)[C@@H]12			> 10 µM				
NNC(=O)c1ccncc1 [ISONIAZID]	6.92	0.19 µM	0.31 µM (≈ 0.0425 µg/mL)				
CC(=O)[C@@H]1CC[C@]2(CO)CC[C@]3(C)[C@H](CC[C@@H]4[C@@]5(C)CCCNC(C)(C)[C@@H]5CC[C@]43C)[C@@H]12	4.75	56.9 µM	50 µM (≈ 22.2 µg/mL)				
C[C@H]1[C@H](C)CC[C@]2(COC(=O)CCC(=O)O)CC[C@]3(C)C(=CC[C@@H]4[C@@]5(C)CCCNC(C)(C)[C@@H]5CC[C@]43C)[C@@H]12	4.04	110 µM	111 µM (≈ 60.1 µg/mL)				
C/C(=N\O)[C@@H]1CC[C@]2(CO)CC[C@]3(C)[C@H](CC[C@@H]4[C@@]5(C)CCCNC(C)(C)[C@@H]5CC[C@]43C)[C@@H]12	4.37	41 µM	43 µM (≈ 19.7 µg/mL)				
COC(=O)[C@]12CC[C@@H](C)[C@H](C)[C@@H]1C1=CC[C@@H]3[C@@]4(C)CCC(=O)NC(C)(C)[C@@H]4CC[C@@]3(C)[C@]1(C)CC2			> 10 µM				
CC1(C)CC[C@]2(COC(=O)CCC(=O)O)CC[C@]3(C)C(=CC[C@@H]4[C@@]5(C)CCCNC(C)(C)[C@@H]5CC[C@]43C)[C@H]2C1	4.69	82.5 µM	100 µM (≈ 54.2 µg/mL)				
COc1ccc(/C=C/C(=O)OC[C@]23CCC(C)(C)C[C@@H]2C2=CC[C@@H]4[C@@]5(C)CCCNC(C)(C)[C@@H]5CC[C@@]4(C)[C@]2(C)CC3)cc1	< 4.00	> 100 µM	> 100 µM				
C=C(C)[C@@H]1CC[C@]2(C(=O)OC)CC[C@]3(C)[C@H](CC[C@@H]4[C@@]5(C)CCC(=O)NC(C)(C)[C@@H]5CC[C@]43C)[C@@H]12			> 10 µM				
CC[C@@H](CO)NCCN[C@@H](CC)CO [ETHAMBUTOL]	5.90	1.78 µM	6.25 µM (≈ 1.28 µg/mL)				
CCc1nc(N)nc(N)c1-c1ccc(Cl)cc1 [PYRIMETHAMINE]	4.63	35.9 µM	50 µM (≈ 12.4 µg/mL)				
CC(CO)[C@@H]1CC[C@]2(CO)CC[C@]3(C)[C@H](CC[C@@H]4[C@@]5(C)CCCNC(C)(C)[C@@H]5CC[C@]43C)[C@@H]12 (some centres not stated)	5.34	14.1 µM	12.5 µM (≈ 5.75 µg/mL)				
CC1(C)CC[C@]2(C(=O)O)CC[C@]3(C)C(=CC[C@@H]4[C@@]5(C)CC[C@H](OC(=O)/C=C/c6ccc(O)cc6)C(C)(C)[C@@H]5CC[C@]43C)[C@@H]2C1					6.25 µg/mL (≈ 10.4 µM)		
COC(=O)[C@]12CC[C@@H](C(C)CO)[C@@H]1[C@H]1CC[C@@H]3[C@@]4(C)CCC(=O)NC(C)(C)[C@@H]4CC[C@@]3(C)[C@]1(C)CC2 (some centres not stated)	5.24	18.3 µM	12.5 µM (≈ 6.27 µg/mL)				

SMILES	pIC50 [1]	IC90 [1]	MIC [1]	MBC [2]	MIC [3]	MIC [4]	MIC90 [5]
CC(COC(=O)/C=C/c1ccccc1)[C@@H]1CC[C@]2(COC(=O)/C=C/c3ccccc3)CC[C@]3(C)[C@H](CC[C@@H]4[C@@]5(C)CCCNC(C)(C)[C@@H]5CC[C@]43C)[C@@H]12 (some centres not stated)	< 3.70	> 200 µM	200 µM (≈ 144 µg/mL)				
C=C(C)[C@@H]1CC[C@]2(COC(=O)CCC(=O)O)CC[C@]3(C)[C@H](CC[C@@H]4[C@@]5(C)CCCNC(C)(C)[C@@H]5CC[C@]43C)[C@@H]12	4.40	70 µM	61 µM (≈ 33.1 µg/mL)	11 µg/mL (≈ 20.3 µM)			
CC1(C)CC[C@]2(C(=O)O)CC[C@]3(C)C(=CC[C@@H]4[C@@]5(C)CC[C@H](O)C(C)(C)[C@@H]5CC[C@]43C)[C@@H]2C1 [OLEANOLIC_ACID]					25 µg/mL (≈ 54.7 µM)	50 µg/mL (≈ 109 µM)	
COc1cc(/C=C/C(=O)O)ccc1O.C[C@H]1[C@H](C)CC[C@]2(C(=O)O)CC[C@]3(C)C(=CC[C@@H]4[C@@]5(C)CC[C@H](O)C(C)(C)[C@@H]5CC[C@]43C)[C@H]12					3.13 µg/mL		
COC(=O)[C@]12CC[C@@H](C(C)COC(=O)/C=C/c3ccccc3)[C@@H]1[C@H]1CC[C@@H]3[C@@]4(C)CCC(=O)NC(C)(C)[C@@H]4CC[C@@]3(C)[C@]1(C)CC2 (some centres not stated)	< 3.70	> 200 µM	> 200 µM				
C=C(C)[C@@H]1CC[C@]2(C(=O)O)CC[C@]3(C)[C@H](CC[C@@H]4[C@@]5(C)C[C@@H](O)[C@H](O)C(C)(C)[C@@H]5CC[C@]43C)[C@@H]12 [ALPHITOLIC ACID]							12.5 µg/mL (≈ 26.4 µM)
N[C@@H]1CONC1=O [CYCLOSERINE]	4.68	33.1 µM	50 µM (≈ 5.1 µg/mL)				
COC(=O)[C@]12CC[C@@H](C(C)COC(=O)CCC(=O)O)[C@@H]1[C@H]1CC[C@@H]3[C@@]4(C)CCC(=O)NC(C)(C)[C@@H]4CC[C@@]3(C)[C@]1(C)CC2 (some centres not stated)	4.64	27 µM	28 µM (≈ 16.9 µg/mL)				
NCC[C@H](O)C(=O)N[C@@H]1C[C@H](N)[C@@H](O[C@H]2O[C@H](CN)[C@@H](O)[C@H](O)[C@H]2O)[C@H](O)[C@H]1O[C@H]1O[C@H](CO)[C@@H](O)[C@H](N)[C@H]1O [AMIKACIN]	7.10	0.09 µM	0.16 µM (≈ 0.0937 µg/mL)				
C=C(C)[C@@H]1CC[C@]2(CO)CC[C@]3(C)[C@H](CC[C@@H]4[C@@]5(C)CC[C@H](O)C(C)(C)[C@@H]5CC[C@]43C)[C@@H]12 [BETULIN]							25 to 30 µg/mL (≈ 56.5 to 67.8 µM)
C=C(C)[C@@H]1CC[C@]2(COC(=O)/C=C/c3ccccc3)CC[C@]3(C)[C@H](CC[C@@H]4[C@@]5(C)CCCNC(C)(C)[C@@H]5CC[C@]43C)[C@@H]12	5.17	7.7 µM	10 µM (≈ 5.72 µg/mL)	4 µg/mL (≈ 6.99 µM)			
C[C@H]1[C@H](C)CC[C@]2(C(=O)O)CC[C@]3(C)C(=CC[C@@H]4[C@@]5(C)CC[C@H](OC(=O)/C=C/c6ccc(O)cc6)C(C)(C)[C@@H]5CC[C@]43C)[C@H]12					6.25 µg/mL (≈ 10.4 µM)		
CC1(C)CC[C@@]23CC[C@]4(C)C(OC2)(C(=O)C[C@@H]2[C@@]5(C)CCCNC(C)(C)[C@@H]5CC[C@]24C)[C@H]3C1	4.96	53 µM	29 µM (≈ 13.2 µg/mL)				
CC1(C)CC[C@]2(COC(=O)/C=C/c3ccccc3)CC[C@]3(C)C(=CC[C@@H]4[C@@]5(C)CCCNC(C)(C)[C@@H]5CC[C@]43C)[C@H]2C1	5.10	12 µM	12 µM (≈ 6.86 µg/mL)	12 µg/mL (≈ 21 µM)			
C[C@H]1[C@H](C)CC[C@]2(CO)CC[C@]3(C)C(=CC[C@@H]4[C@@]5(C)CCCNC(C)(C)[C@@H]5CC[C@]43C)[C@@H]12	5.31	14.5 µM	12.5 µM (≈ 5.52 µg/mL)	20 µg/mL (≈ 45.3 µM)			
C=C(C)[C@@H]1CC[C@]2(COC(=O)/C=C/c3ccc(OC)cc3)CC[C@]3(C)[C@H](CC[C@@H]4[C@@]5(C)CCCNC(C)(C)[C@@H]5CC[C@]43C)[C@@H]12	3.80	> 200 µM	> 200 µM				
COc1ccc(/C=C/C(=O)OC[C@]23CC[C@@H](C)[C@H](C)[C@@H]2C2=CC[C@@H]4[C@@]5(C)CCCNC(C)(C)[C@@H]5CC[C@@]4(C)[C@]2(C)CC3)cc1	5.74	2.5 µM	3.12 µM (≈ 1.88 µg/mL)	12 µg/mL (≈ 19.9 µM)			
COC(=O)[C@]12CCC(C)(C)C[C@@H]1C1=CC[C@@H]3[C@@]4(C)CCC(=O)NC(C)(C)[C@@H]4CC[C@@]3(C)[C@]1(C)CC2			> 10 µM				
